Measured values: ChEMBL document CHEMBL1153926, “Evaluation of synthetic sphingolipid analogs as ligands for peroxisome proliferator-activated receptors” (Bioorg Med Chem Lett, 2009)
Active and inactive are the calls of the source. The rule behind the calls is not given here.

Experiments:
Assay type in all cases: cell-based
[1] = biological target: T1, Peroxisome proliferator-activated receptor delta (Mus musculus) (UniProt P35396); test: Transactivation of mouse recombinant PPARbeta expressed in mouse NIH3T3 cells by PPRE activation based dual luciferase reporter gene assay relative to control
T1 sequence (whole entry): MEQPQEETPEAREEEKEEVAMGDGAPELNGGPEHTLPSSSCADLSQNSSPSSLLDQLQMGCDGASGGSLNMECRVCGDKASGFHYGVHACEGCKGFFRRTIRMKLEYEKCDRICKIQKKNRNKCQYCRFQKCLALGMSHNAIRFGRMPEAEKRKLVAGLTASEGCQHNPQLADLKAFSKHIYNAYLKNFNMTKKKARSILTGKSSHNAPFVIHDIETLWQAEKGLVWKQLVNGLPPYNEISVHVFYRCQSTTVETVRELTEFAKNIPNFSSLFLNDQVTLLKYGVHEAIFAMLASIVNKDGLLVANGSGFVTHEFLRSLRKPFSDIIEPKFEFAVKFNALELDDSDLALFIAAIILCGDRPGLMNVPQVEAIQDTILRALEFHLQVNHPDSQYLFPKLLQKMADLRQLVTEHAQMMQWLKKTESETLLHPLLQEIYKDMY

[2] = biological target: T2, Peroxisome proliferator-activated receptor gamma (Mus musculus) (UniProt P37238); test: Transactivation of mouse recombinant PPARgamma expressed in mouse NIH3T3 cells by PPRE activation based dual luciferase reporter gene assay relative to control
T2 sequence (whole entry): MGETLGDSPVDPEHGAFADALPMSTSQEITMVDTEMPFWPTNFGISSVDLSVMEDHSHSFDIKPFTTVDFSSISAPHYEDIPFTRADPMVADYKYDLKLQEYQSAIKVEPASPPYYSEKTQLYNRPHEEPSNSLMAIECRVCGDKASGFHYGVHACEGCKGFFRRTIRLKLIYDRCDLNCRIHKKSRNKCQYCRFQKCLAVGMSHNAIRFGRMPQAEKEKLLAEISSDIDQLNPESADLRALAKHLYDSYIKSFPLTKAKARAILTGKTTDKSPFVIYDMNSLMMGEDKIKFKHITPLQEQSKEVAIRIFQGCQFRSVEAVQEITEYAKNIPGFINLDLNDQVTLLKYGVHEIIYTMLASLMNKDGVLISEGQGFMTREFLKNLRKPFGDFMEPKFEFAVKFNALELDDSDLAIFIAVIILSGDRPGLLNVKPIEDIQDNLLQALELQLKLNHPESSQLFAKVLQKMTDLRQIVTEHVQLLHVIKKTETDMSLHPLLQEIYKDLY

[3] = biological target: T3, Peroxisome proliferator-activated receptor alpha (Mus musculus) (UniProt P23204); test: Transactivation of mouse recombinant PPARalpha expressed in mouse NIH3T3 cells at 5 uM by PPRE activation based dual luciferase reporter gene assay relative to control
T3 sequence (whole entry): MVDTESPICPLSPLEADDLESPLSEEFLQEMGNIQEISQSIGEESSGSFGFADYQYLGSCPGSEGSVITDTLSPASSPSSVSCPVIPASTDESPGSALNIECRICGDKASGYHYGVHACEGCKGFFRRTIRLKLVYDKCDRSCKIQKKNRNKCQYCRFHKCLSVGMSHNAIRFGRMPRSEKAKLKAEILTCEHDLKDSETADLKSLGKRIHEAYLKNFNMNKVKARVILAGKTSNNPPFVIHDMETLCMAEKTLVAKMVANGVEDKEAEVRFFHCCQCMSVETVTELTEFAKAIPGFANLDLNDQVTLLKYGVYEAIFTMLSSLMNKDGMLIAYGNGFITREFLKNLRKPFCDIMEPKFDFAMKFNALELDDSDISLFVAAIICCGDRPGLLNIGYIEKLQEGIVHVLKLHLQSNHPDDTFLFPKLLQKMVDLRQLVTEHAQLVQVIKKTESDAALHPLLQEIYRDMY

[4] = biological target: T3, Peroxisome proliferator-activated receptor alpha (Mus musculus); test: Transactivation of mouse recombinant PPARalpha expressed in mouse NIH3T3 cells at 0.1 uM to 10 uM by PPRE activation based dual luciferase reporter gene assay relative to control

| Structure (SMILES) | Activity [1] | Activity [2] | Activity [3] | Activity [4] |
| --- | --- | --- | --- | --- |
| CCCCCCCCCCCCCC[C@H](O)[C@H](O)[C@@H](CO)NC(=O)[C@H](Cc1ccccc1)NC(=O)OC(C)(C)C | Dose-dependent effect | Active | Active | Active |
| CC1(COc2ccc(CC3SC(=O)NC3=O)cc2)CCCCC1 (centres undefined) | – | Active | – | – |
| Cc1cccc(Nc2cc(Cl)nc(SCC(=O)O)n2)c1C | – | – | – | Active |
| CCCCCCCCCCCCCC[C@H](O)[C@@H](O)[C@H](CO)NC(=O)[C@H](Cc1ccccc1)NC(=O)OC(C)(C)C | Dose-dependent effect | Active | Active | Active |
| CCCCCCCCCCCCCC[C@@H](O)[C@H](O)[C@@H](CO)NC(=O)[C@H](Cc1ccccc1)NC(=O)OC(C)(C)C | Dose-dependent effect | Active | Active | Active |

Further lines, results first:

| Activity [1] | Activity [2] | Activity [3] | Activity [4] | Structure (SMILES) |
| --- | --- | --- | --- | --- |
| Dose-dependent effect | Active | Active | – | CCCCCCCCCCCCCC[C@@H](O)[C@H](O)[C@H](CO)NC(=O)CCCCCCCCCCCCC |
| Dose-dependent effect | Active | Active | – | CCCCCCCCCCCCCC[C@H](O)[C@H](O)[C@H](CO)NC(=O)CCCCCCCCCCCCC |
| – | Active | – | – | CCCCCCCCCCCCCC[C@@H](O)[C@@H](O)[C@@H](CO)NC(=O)CBr |
| Dose-dependent effect | Active | Active | – | CCCCCCCCCCCCCC[C@@H](O)[C@@H](O)[C@@H](CO)NC(=O)CCCCCCCCCCCCC |
